# According to a melting point compilation (Tetko et al.; mined from patent text by program, amines drawn as free bases though some values may be those of a salt):
row,Compound,melting point [°C]
1,COc1ccc(-c2c(Cl)c(Cn3cnc4ccccc43)nc3sc4c(c23)CCS(=O)C4)cc1 (stereo not given),233 to 235
2,Cc1nc2cc(NC(=O)c3ccco3)ccc2o1,156 to 158
3,C=CC[C@H](C(N)=O)[C@@H](CC(C)C)C(=O)NC1N=C(N2CCCCC2)c2ccccc2N(C)C1=O (stereo not given in full),231 to 238
4,COc1cccc2c1C(=O)c1c(OC)cc(CBr)cc1C2=O,176 to 178
5,COc1cc2c(cc1C(C)=O)CCCC2C (stereo not given),48 to 50
6,O=C1O[C@H](O)[C@@H]2[C@H]1[C@@H]1C=C[C@H]2C1,133
7,COC(=O)c1ccc(CC(=O)Nc2cc(Cl)ccc2N2CCCCC2)cc1,156 to 158
8,O=C1c2c(c(=O)n3nc(-c4ccccc4)cc3n2CC(=NO)c2ccccc2)CN1C1CCCCC1,> 280
9,O=C1c2ccc(OCCn3ccnc3)cc2CCC1Cc1ccc(Br)cc1 (stereo not given),129 to 130
10,O=[N+]([O-])c1cc(Cl)c(CCN2CCN(c3nsc4ccccc34)CC2)cc1Cl,153 to 157
11,COc1ccc(S(=O)(=O)N2Cc3ccsc3C[C@@H]2C(=O)O)cc1,110
12,CCC(=O)c1ccc(-c2ncccc2S(=O)(=O)Nc2ncc(C)nc2OC)cc1,126 to 127
13,COc1ccc(CN(C)CCCc2ccc(NC(=O)c3cccc4c(=O)c5cc(F)ccc5sc34)cc2)cc1OC,160
14,Cc1ccc(C(=O)CNC(=O)c2ccc(C(F)(F)F)cc2)s1,182 to 183
15,CC1(C2CCCC2)Cc2cc(OCC(=O)NC(=N)N)c(Cl)c(Cl)c2C1=O (stereo not given),216
16,CCOP(=O)(OCC)Oc1cc(C(C)C)c(NC(=O)CN2CCN(CCSc3nc4ccccc4o3)CC2)c(C(C)C)c1,108 to 109
17,Nc1cccc2cc(-c3ccccc3)cnc12,64 to 66
18,CCOC(=O)CNC(=O)CC(O)CCl (stereo not given),53 to 54
19,CC(C)(C)OP(=O)(Cc1ccc(Br)cc1)OC(C)(C)C,45
20,Oc1ccc(-c2cc3ccc(O)cc3s2)cc1,305 to 306
21,CC(C)(C)CC(C)(C)c1ccc(Oc2cc(N)c(O)cc2[N+](=O)[O-])cc1,187 to 189
22,CC(C(=O)c1ccco1)N1CCN(c2ccc(CO)c(Cl)c2)CC1 (stereo not given),95 to 98
23,N#Cc1ccc2nccn2c1,166 to 167
24,O[C@H](COc1cccc2[nH]ccc12)CN1CC=C(c2c[nH]c3cc(Cl)ccc23)CC1,200 to 202
25,Cc1ccc2sc(-c3ccccn3)nc(=O)c2c1,220 to 221

row,Compound,melting point [°C]
1,CCC(=O)OCC(CCn1cnc2cnc(N)nc21)COC(=O)CC,77.5 to 79
2,CCC1(C)CC2(NC(=O)N(C)C2=O)C(C)C(C)(CC)N1C (stereo not given),190 to 195
3,CON1CCC2(CC1)NC(=O)NC2=O,230 to 234
4,COC1=C(OC)C(=O)C(c2cc(C(C)(C)C)c(O)c(C(C)(C)C)c2)=C(C)C1=O,147 to 148
5,CS(=O)(=O)Nn1c(=O)[nH]c2cc([N+](=O)[O-])c(-n3ccnc3)cc2c1=O,> 270
6,CC(C)Cc1nc2c(N)nc3c(c2n1CC(C)C)CCCC3,160 to 161
7,Cc1c(N)cc(C(C)(C)C)c2c1CC(C)(C)O2,115 to 116
8,Oc1cc(Br)c2oc(-c3cc(F)c(O)c(F)c3)nc2c1,270 to 272
9,Cc1ccc(Br)c(S(=O)(=O)C(F)(F)F)c1,69
10,CC(C)n1nc(-c2sc(NC(=O)OC(C)(C)C)nc2-c2ccccc2)ccc1=O,198 to 199
11,O=C(NCCN1CCC(O)(c2ccc(Cl)cc2)CC1)c1ccccc1Br,121
12,CCOC(=O)C1(C(=O)OCC)NC(=O)CC1c1ccccc1 (stereo not given),97 to 99
13,C[C@H]1CN(c2cc3c(cc2F)c(=O)c(C(=O)O)cn3C2CC2)C[C@H]1N (relative stereo),268 to 270
14,CC(C(N)=S)C(O)(Cn1cncn1)c1ccc(F)cc1F (stereo not given),164 to 167
15,CC(=O)c1ccc2c(c1)C1(c3ccccc3-2)c2cc(C(C)=O)ccc2-c2ccc(C(C)=O)cc21,258 to 260
16,O=c1c2ccccc2nc(-c2cc(-c3ccccc3)c(N3CCOCC3)s2)n1-c1ccccc1,218 to 220
17,CC(C)c1cc(C(C)C)c(C(F)C(=O)c2ccc(C(C)C)c(OS(N)(=O)=O)c2C(C)C)c(C(C)C)c1 (stereo not given),130 to 132
18,COc1ccc(NC(=O)/C=C/c2cc(OC)c(OC)c(OC)c2)cc1N,202 to 204
19,Fc1cc(Cl)c2nc(Cl)sc2c1-n1nc2c(c1Cl)CCCC2,161 to 163
20,CCOCc1nc2c(N)nc3ccccc3c2n1CC1(O)CCC1,174 to 175
21,Cc1cccc2ncc(C(=O)NCC(C)(C)C)c(=O)n12,191 to 194
22,CCOc1nc(C(F)(F)F)cc(=O)n1-c1cc(OC)c(Cl)cc1F,117 to 119
23,O=C(O)c1cc2cccc(I)c2s1,268 to 270
24,CN(N)c1cnn(-c2cccc(C(F)(F)F)c2)c(=O)c1,125 to 127
25,Fc1cccc(F)c1C1=NC(c2ccc(-c3ccc(C(F)(F)F)cc3)cc2)CO1 (stereo not given),148 to 149

row,Compound,melting point [°C]
1,Nc1ncnc2c1ncn2C[C@@H]1O[C@H](CO)[C@@H](O)[C@@H]1O,107 to 109
2,CCCCCCCCCCCCCCCCCCOC(=O)CCc1cc(C)c(O)c(C(C)(C)C)c1,58 to 59
3,COc1ccc(N2CCN(CC[C@H]3CC[C@H](NC(=O)N(C)C)CC3)CC2)c(Cl)c1Cl,196 to 198
4,Cn1ccc2c3c(c(C(=O)O)cc21)C(=O)NC3=O,313 to 318
5,CC(CCc1cccc(Cl)c1)NC(=O)n1nc(N(C)C)n(N)c1=O (stereo not given),74
6,CC(C)(OCc1nn(C(=O)c2ccccc2)c2ccccc12)C(=O)O,132 to 135
7,CC1=C(C(=O)OC(C)C)C(c2cccc([N+](=O)[O-])c2)N(C(=O)NCc2ccccc2)C(=O)N1 (stereo not given),184 to 185
8,CCOC(=O)Cn1c2c([nH]c(=O)c1=O)CCC1=C2C=C(n2ccc(C(=O)O)c2)CC1,282
9,O=c1[nH]c2ccccc2n1CCCCCCN1CCN(C(c2ccccc2)c2ccccc2)CC1,190
10,Cc1noc(NS(=O)(=O)c2ccccc2-c2ccc(-c3ncco3)cc2CN2CC(C)(C)CC2=O)c1C,118 to 125
11,CN1C(=O)CN=C(c2ccccc2F)c2cc(NC(=O)NCCCl)ccc21,240
12,CC(C)CCCC(C)C1CCC2C3CC=C4CC(OCCC#CCCOC(c5ccccc5)(c5ccccc5)c5ccccc5)CCC4(C)C3CCC12C (stereo not given),112 to 113
13,COc1cc2[nH]c(=O)nc(C)c2c(OC)c1OC,229 to 230
14,OC(Cn1cncn1)(c1ccc(Cl)cc1)C1(n2cncn2)CC1 (stereo not given),208
15,Cc1noc(C=Cc2ccccc2O)n1,184 to 186
16,O=C1Cn2c(c(Br)c3ccccc32)-c2ccccc2N1,247 to 249
17,CCSc1cccc(OC(F)(F)F)c1S(=O)(=O)NC(C)(C)C,77
18,CO[C@H]1CC[C@H](N(C)C(=S)c2ccc3nonc3c2)CC1,137 to 138
19,CCC(C)(CC)c1ccc(N)nn1,56 to 58
20,COCCOC(=O)C1=NNC(C)=C(C(=O)OC(C)C)C1c1cccc([N+](=O)[O-])c1 (stereo not given),165
21,COc1c(C)cnc(CSc2nc3ncc(O)cc3[nH]2)c1C,178 to 180
22,COc1cc(NC(=O)N(CCCCCC(=O)O)c2ccccc2)c(O)c(C(C)(C)C)c1,95 to 98
23,CCCCOc1cccc(C[C@H](NC(C)=O)[C@H](O)CNCc2cccc(CC)c2)c1,112 to 114
24,COc1cc(N)c([N+](=O)[O-])cc1C(=O)O,254
25,COc1ccc(-c2cncc(OC3SCC(O)C(O)C3O)c2)cn1 (stereo not given),189

row,Compound,melting point [°C]
1,CCOC(=O)c1cn(CCc2ccc(O)cc2)c2cc(C3CC3)nn2c1=O,95 to 100
2,CC(C)(COc1ccc2ncc(Cl)n2n1)CS(N)(=O)=O,197 to 200
3,O=C(O)c1cc2c(n(CC3CCCCC3)c1=O)CCCCCC2,162 to 163
4,O=C1C2=CC=CCC2C(O)N1CCN1CCC(c2noc3cc(F)ccc23)CC1 (stereo not given),172 to 173
5,COc1ccccc1CNc1ccc2c(C(=N)c3ccc(F)cc3)cccc2n1,155
6,CS(=O)c1cc(O)ccc1-c1nc2cnccc2[nH]1 (stereo not given),215
7,Cc1noc(NC(=O)N2CCC(c3nc(-c4ccc(F)cc4)cs3)CC2)c1C,170 to 171
8,CC(C)(C)c1cc(Cl)c(Cl)cc1[N+](=O)[O-],80
9,Cc1cccc(CN2C(=O)C3(COc4cc5c(cc43)OCCO5)c3ccccc32)n1 (stereo not given),183 to 185
10,CCNc1nc(N2CCN(Cc3ccccc3)CC2)ncc1C(=O)O,158 to 160
11,COc1ccc(CNc2nc(OCc3ccccn3)ncc2C(=O)O)cc1Cl,201 to 203
12,Clc1ccc(C(c2ccccc2)c2cn[nH]c2)c(Cl)c1 (stereo not given),131
13,COC(=O)COc1ccc(C(=O)NNC(=O)c2ccc(C#N)cc2)cc1,220 to 222
14,NC(=O)c1ccc(-c2cnc3[nH]c(=O)n(CCC4CCOCC4)c3n2)cc1,233 to 236
15,COc1ccc(C2(O)OC(=O)C(c3cc(OC)c4c(c3)OCO4)=C2CC2CCCC2)cc1C (stereo not given),144 to 145
16,COCCNn1ncc2nc(C)ccc21,167 to 170
17,NC(=O)c1cncc(N)c1,263 to 264
18,CN(C)C(=O)CC1(C)OCCC2=C1c1ccccc1C2 (stereo not given),112 to 114
19,CCN(CC)CCN(CCN1CCCCC1)c1ccc(-c2nc3ccc(Cl)cc3[nH]2)cc1,156
20,CCOC(=O)C1=C(C)NC(CSc2ccccc2)=C(C(=O)OCC)C1c1cccc([N+](=O)[O-])c1 (stereo not given),92 to 94
21,CCOc1cc2ncc(C#N)c(NCc3ccc(Cl)c(Cl)c3)c2cc1OCC,163 to 165
22,CCCCCCCCCCCCCCCCCC(=O)CO,78 to 80
23,O=C1OC(c2ccc(Cl)c(S(=O)(=O)Cl)c2)c2ccccc21 (stereo not given),158 to 159
24,O=C1C=CC(OC2CCCC2)N1S(=O)(=O)c1ccccc1 (stereo not given),123 to 124
25,O=C(C#Cc1ccc(C(F)(F)F)cc1Cl)Nc1ccc2oc(CN3CCCC3)nc2c1,218 to 223
